Measurements from PubChem BioAssay AID1963845 (Molecular Pharmacology Branch, DTP, NCI, 2024).
pIC50: −log10 of the molar value.

Test system: 429239-143-T-J1-PDC complex spheroid viability
Experiment: Anticancer human tumor 429239-143-T-J1-PDC patient-derived small cell lung carcinoma cell line growth inhibition [POLQ]
Settings: for pIC50: curve of first compound; for viability, T/C: stronger effect = lower value
Description: Multicellular complex tumor spheroid response to Polymerase (POL) inhibitors (novobiocin, ART-558, RP6685) in combination with a variety of drugs and investigational agents in selected tumor cell lines
The POL inhibitors (novobiocin, ART-558, and RP6685) were evaluated both individually and in combination with standard of care and investigational anticancer small molecules within a complex spheroid model of solid tumors. . Complex spheroids include a stromal component modeled by human endothelial cells (HUVEC) and fibroblasts modeled by human mesenchymal stem cells (MSCs). The concentration ranges selected for each drug and investigational agent were based upon clinically achievable concentrations if the clinical Cmax of the agent was known.
Compounds. The drugs and investigational agents: novobiocin (NSC847541), ART-558 (NSC835418), RP-6685 (NSC848927), peposertib (NSC802822), ceralasertib (NSC780249), elimusertib (NSC800525), camonsertib (NSC841442), AZD-1390 (NSC803789), olaparib (NSC753686), talazoparib (NSC767125), rucaparib (NSC756644), sotorasib (NSC818433), MRTX-1133 (NSC836407), SN-38 (NSC673596), topotecan (NSC609699), epotoside (NSC141540), doxorubicin (NSC123127), gemcitabine (NSC613327), 5-fluorouracil (NSC19893), paclitaxel (NSC125973), vemurafenib (NSC761431), MSA-2 (NSC828583), SN-011 (NSC837082), adavosertib (NSC754352), prexasertib (NSC758257), carboplatin (NSC241240) and oxaliplatin (NSC266046), were obtained from the National Cancer Institute (NCI) Developmental Therapeutics Program Chemical Repository (21). The FDA-approved anticancer drug set is available from the Developmental Therapeutics Program at https://dtp.cancer.gov/organization/dscb/obtaining/. […] The stock solutions were prepared in dimethyl sulfoxide (DMSO, Sigma-Aldrich, St. Louis, MO, cat. D2650), except for the platinum compounds which were prepared in saline (Quality Biological, Gaithersburg, MD, cat. 114-055-101), at 800-fold the tested concentration and stored at -70 degrees C prior to their use. All drugs and investigational agents were tested over a range starting from a high concentration at or near the clinical Cmax and decreasing in half-log increments. If the clinical Cmax for an agent had not been determined, the highest concentration tested was 10 microM, except for SN-38, which was tested at a high concentration of 1 microM.
Cell Culture. All cells were maintained in an incubator at 37 degrees C and 5% CO2 with 95% humidity. The PDC lines were cultured according to standard operating procedures established by the NCI PDMR (https://pdmr.cancer.gov). Table 3 of the manuscript, lists the cell lines along with the number of the three cell types plated to form the mct-spheroids and media for tumor cell growth. After thawing, all PDC lines, except 997537-175-T-J1-PDC and 415267-285-R-J2-PDC, were cultured in Matrigel-coated flasks prepared with a working solution of 1X Ham's F-12 nutrient mix, without supplementation (Thermo Fisher Scientific, cat. 11765054), 100 U/mL penicillin-streptomycin (Thermo Fisher Scientific, cat. 15140122), and 2.5% Matrigel (Corning Inc., Corning, NY, cat. 354248) for the first three passages. The two PDC lines 997537-175-T-J1-PDC and 415267-285-R-J2-PDC were cultured on uncoated flasks. The 857933-349-R-J2-PDC line was cultured in 6C/Colon 1B media containing advanced DMEM/F-12 (Thermo Fisher Scientific, cat. 12634028), 10 mM HEPES (Thermo Fisher Scientific, cat. 15630080), 1X GlutaMAX supplement (Thermo Fisher Scientific, cat. 35050061), 0.1 mg/mL primocin (InvivoGen, San Diego, CA, cat. ant-pm-2), 10% defined fetal bovine serum, heat inactivated (HyClone Laboratories Inc., Logan, UT, cat. SH30070.03HI), 50% L-WRN conditioned media (ATCC, cat. CRL-3276), 1.25 mM N-Acetyl-L-cysteine (Sigma-Aldrich, cat. A9165), 10 mM nicotinamide (Sigma-Aldrich, cat. N0636), 1X B-27 supplement (Thermo Fisher Scientific, cat. 17504044), 1X N-2 supplement (Thermo Fisher Scientific, cat. […]

[1] = second compound 0.0316 µM, first compound 0.0316 µM
[2] = second compound 0.0316 µM, first compound 0.1 µM
[3] = second compound 0.0316 µM, first compound 0.316 µM
[4] = second compound 0.0316 µM, first compound 1 µM
[5] = second compound 0.0316 µM, first compound 3.16 µM
[6] = second compound 0.0316 µM, first compound 10 µM
[7] = second compound 0.1 µM, first compound 0.0316 µM
[8] = second compound 0.1 µM, first compound 0.1 µM
[9] = second compound 0.1 µM, first compound 0.316 µM
[10] = second compound 0.1 µM, first compound 1 µM
[11] = second compound 0.1 µM, first compound 3.16 µM
[12] = second compound 0.1 µM, first compound 10 µM
[13] = second compound 0.316 µM, first compound 0.0316 µM
[14] = second compound 0.316 µM, first compound 0.1 µM
[15] = second compound 0.316 µM, first compound 0.316 µM
[16] = second compound 0.316 µM, first compound 1 µM
[17] = second compound 0.316 µM, first compound 3.16 µM
[18] = second compound 0.316 µM, first compound 10 µM
[19] = second compound 1 µM, first compound 0.0316 µM
[20] = second compound 1 µM, first compound 0.1 µM
[21] = second compound 1 µM, first compound 0.316 µM
[22] = second compound 1 µM, first compound 1 µM
[23] = second compound 1 µM, first compound 3.16 µM
[24] = second compound 1 µM, first compound 10 µM
[25] = second compound 3.16 µM, first compound 0.0316 µM
[26] = second compound 3.16 µM, first compound 0.1 µM
[27] = second compound 3.16 µM, first compound 0.316 µM
[28] = second compound 3.16 µM, first compound 1 µM
[29] = second compound 3.16 µM, first compound 3.16 µM
[30] = second compound 3.16 µM, first compound 10 µM
[31] = second compound 10 µM, first compound 0.0316 µM
[32] = second compound 10 µM, first compound 0.1 µM
[33] = second compound 10 µM, first compound 0.316 µM
[34] = second compound 10 µM, first compound 1 µM
[35] = second compound 10 µM, first compound 3.16 µM
[36] = second compound 10 µM, first compound 10 µM
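Note: luminescence signal used as surrogate measure of viable cells; spheroids exposed to compounds for seven days before readout.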
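Throughout, for viability, T/C: 100% = DMSO vehicle control viability as luminescence relative to vehicle.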

## COc1ccc([C@@H](O)c2cc(-c3ncnc4cc(N5CCOCC5)ccc34)c(F)cc2Cl)nn1 + Nc1ccc(C#CCN(C(=O)Cc2ncc(C(F)(F)F)cc2C(F)(F)F)c2ccc(F)cc2)nn1
Second compound 0.0316 µM
  pIC50: 5.03
Second compound 0.1 µM
  pIC50: 5.02
Second compound 0.316 µM
  pIC50: 5.05
Second compound 1 µM
  pIC50: < 5.00
Second compound 3.16 µM
  pIC50: 5.09
Second compound 10 µM
  pIC50: 5.14
[1]
  viability, T/C: 92%
[2]
  viability, T/C: 103%
[3]
  viability, T/C: 102%
[4]
  viability, T/C: 98.8%
[5]
  viability, T/C: 90.1%
[6]
  viability, T/C: 47.2%
[7]
  viability, T/C: 97.8%
[8]
  viability, T/C: 105%
[9]
  viability, T/C: 101%
[10]
  viability, T/C: 94.3%
[11]
  viability, T/C: 86.1%
[12]
  viability, T/C: 48.4%
[13]
  viability, T/C: 107%
[14]
  viability, T/C: 101%
[15]
  viability, T/C: 102%
[16]
  viability, T/C: 112%
[17]
  viability, T/C: 88.8%
[18]
  viability, T/C: 45.5%
[19]
  viability, T/C: 97.8%
[20]
  viability, T/C: 86.6%
[21]
  viability, T/C: 97%
[22]
  viability, T/C: 100%
[23]
  viability, T/C: 84%
[24]
  viability, T/C: 55.8%
[25]
  viability, T/C: 106%
[26]
  viability, T/C: 102%
[27]
  viability, T/C: 96.8%
[28]
  viability, T/C: 96.6%
[29]
  viability, T/C: 78.7%
[30]
  viability, T/C: 43.5%
[31]
  viability, T/C: 95.2%
[32]
  viability, T/C: 94.4%
[33]
  viability, T/C: 108%
[34]
  viability, T/C: 97%
[35]
  viability, T/C: 72.1%
[36]
  viability, T/C: 41.6%

## CCCS(=O)(=O)Nc1ccc(F)c(C(=O)c2c[nH]c3ncc(-c4ccc(Cl)cc4)cc23)c1F + Nc1ccc(C#CCN(C(=O)Cc2ncc(C(F)(F)F)cc2C(F)(F)F)c2ccc(F)cc2)nn1
Second compound 0.0316 µM
  pIC50: < 5.00
Second compound 0.1 µM
  pIC50: < 5.00
Second compound 0.316 µM
  pIC50: < 5.00
Second compound 1 µM
  pIC50: < 5.00
Second compound 3.16 µM
  pIC50: < 5.00
Second compound 10 µM
  pIC50: < 5.00
[1]
  viability, T/C: 99%
[2]
  viability, T/C: 111%
[3]
  viability, T/C: 101%
[4]
  viability, T/C: 110%
[5]
  viability, T/C: 104%
[6]
  viability, T/C: 93.3%
[7]
  viability, T/C: 106%
[8]
  viability, T/C: 102%
[9]
  viability, T/C: 96.9%
[10]
  viability, T/C: 100%
[11]
  viability, T/C: 98.3%
[12]
  viability, T/C: 88.7%
[13]
  viability, T/C: 105%
[14]
  viability, T/C: 108%
[15]
  viability, T/C: 106%
[16]
  viability, T/C: 106%
[17]
  viability, T/C: 108%
[18]
  viability, T/C: 93.4%
[19]
  viability, T/C: 114%
[20]
  viability, T/C: 99.5%
[21]
  viability, T/C: 97.4%
[22]
  viability, T/C: 104%
[23]
  viability, T/C: 112%
[24]
  viability, T/C: 91%
[25]
  viability, T/C: 105%
[26]
  viability, T/C: 104%
[27]
  viability, T/C: 94.6%
[28]
  viability, T/C: 102%
[29]
  viability, T/C: 101%
[30]
  viability, T/C: 94.9%
[31]
  viability, T/C: 116%
[32]
  viability, T/C: 98.3%
[33]
  viability, T/C: 105%
[34]
  viability, T/C: 108%
[35]
  viability, T/C: 102%
[36]
  viability, T/C: 89.1%
